Laboratory results reported in patent US11530237B2, “Compositions and methods for treating CNS disorders” (Sage Therapeutics, Inc., priority 2014, dated 2022).

Tests used:
[1] = biological target: α4β3δ GABAA receptors (Homo sapiens (Human), UniProt P28472+P48169); assay: Patch clamp electrophysiology (manual patch) of recombinant α4β3δ GABAA receptors in CHO cells; format: cell-based; conditions: 10 μM test article, GABA EC20 = 2 μM, read-out: GABA (α4β3δ) Manual patch in CHO, % efficacy at 10 μM
Procedure: (§1) Cellular electrophysiology is used to measure the pharmacological properties of our GABAA receptor modulators in heterologous cell systems. Each compound is tested for its ability to affect GABA mediated currents at a suhmaximal agonist dose (GABA EC20=2 μM). LTK cells are stably transfected with the α1β2γ2 subunits of the GABA receptor and CHO cells are transiently transfected with the α4β3δ subunits via the Lipofecatamine method. Cells were passaged at a confluence of about 50-80% and then seeded onto 35 mm sterile culture dishes containing 2 ml culture complete medium without antibiotics or antimycotics. Confluent clusters of cells are electrically coupled (Pritchett et al., Science, 1988, 242, 1306-1308). Because responses in distant cells are not adequately voltage clamped and because of uncertainties about the extent of coupling (Verdoom et al., Neuron 1990, 4, 919-928), cells were cultivated at a density that enables the recording of single cells (without visible connections to other cells).
(§2) Whole cell currents were measured with HEKA EPC-10 amplifiers using PatchMaster software or by using the high throughput QPatch platform (Sophion). Bath solution for all experiments contained (in mM): NaCl 137 mM, KCl 4 mM, CaCl2 1.8 mM, MgCl2 1 mM, HEPES 10 mM, D-Glucose 10 mM, pH (NaOH) 7.4. In some cases 0.005% cremophor was also added. Intracellular (pipette) solution contained: KCl 130 mM, MgCl2 1 mM, Mg-ATP 5 mM, HEPES 10 mM, EGTA 5 mM, pH 7.2. During experiments, cells and solutions were maintained at room temperature (19° C.-30° C.). For manual patch clamp recordings, cell culture dishes were placed on the dish holder of the microscope and continuously perfused (1 ml/min) with bath solution. After formation of a Gigaohm seal between the patch electrodes and the cell (-ipette resistance range: 2.5 MΩ-6.0 MΩ; seal resistance range:>1 GΩ) the cell membrane across the pipette tip was ruptured to assure electrical access to the cell interior (whole-cell patch-configuration). For experiments using the QPatch system, cells were transferred as suspension to the QPatch system in the bath solution and automated whole cell recordings were performed.
(§3) Cells were voltage clamped at a holding potential of −80 mV. For the analysis of test articles, GABA receptors were stimulated by 2 μM GABA after sequential pre-incubation of increasing concentrations of the test article. Pre-incubation duration was 30 s and the duration of the GABA stimulus was 2s. Test articles were dissolved in DMSO to form stock solutions (10 mM). Test articles were diluted to 0.01, 0.1, 1, and 10 μM in bath solution. All concentrations of test articles were tested on each cell. The relative percentage potentiation was defined as the peak amplitude in response to GABA EC20 in the presence of the test article divided by the peak amplitude in response to GABA EC20 alone, multiplied by 100. For Table 2. GABAA receptors α1β2γ2 and α4β3δ% efficacy: “A” 10-100, “B”>100-500, “C”>500; D indicates the data is not available or has not been determined.

[2] = biological target: α1β2γ2 GABAA receptors (Homo sapiens (Human), UniProt P14867+P47870); assay: Patch clamp electrophysiology (QPatch) of recombinant α1β2γ2 GABAA receptors in LTK cells; format: cell-based; conditions: 10 μM test article, GABA EC20 = 2 μM, read-out: GABA (α1β2γ2) Qpatch in Ltk, % efficacy at 10 μM
Procedure: as §1, §2, §3

[3] = system: PTZ-treated mice; assay: Acute PTZ method (pentylenetetrazol-induced seizure assay); format: in vivo; conditions: Mus musculus, lowest dose with significant effect on latency to tonic seizures, PO, read-out: Anticonvulsive Effect Dose (minimal effective anticonvulsant dose)
Procedure: The anticonvulsant effect of test compounds were assessed in a pentylenetetazol-induced seizure assay in mice similar to methods described in Giardina & Gasior (Curr Protoc Pharmacol. 2009). Male CD-1 mice were housed in groups of five under controlled conditions (temperature of 22±2° C. and 12:12 light-dark cycle, lights on at 8:00 am) and water and food were available ad libitum. The mice were housed for 1 week prior to behavioral testing, at which time they weighed 25-35 g. Pentylenetetrazol (PTZ, Sigma) was dissolved in sterile 0.9% saline at a concentration of 12 mg/mL concentration for subcutaneous administration. Test compounds were formulated and administered via oral gavage or intraperitoneal injection at a predetermined time-point (typically 30 or 60 minutes) prior to PTZ injection. All solutions were made fresh and given in a volume corresponding to 10 ml/kg body weight.
Mice were acclimated to the test room for at least 30 min before compound administration. Mice were randomized into at least four test groups (vehicle and at least three doses of the test compound) with 10 mice per group. […] Following the drug pretreatment time the mice were injected s.c. with PTZ (120 mg/kg). Immediately following the PTZ injection, mice were individually placed into observation chambers (25×15×15 cm) and a three-channel timer was started. Each mouse was continuously observed for 30 min and the following behaviors were recorded by observers blinded to the treatments: 1) latency to clonic convulsions that persist for 3 sec and followed by an absence of righting reflex 2) latency to tonic convulsions, characterized by the rigid extension of all four limbs that exceeded a 90 degree angle with the body 3) latency to death 4) number of clonic and tonic convulsions. Data are presented as mean±S.E.M and one-way ‘nalysis of vari’nce with Dunnett's or Bonferroni's post-hoc test was used to detect significant differences in latency and number between the vehicle and dose group, p values<0.05 were regarded as statistically significant.

Structure (SMILES) | Emax at 10 µM [1] [%] | Emax at 10 µM [2] [%] | minimal effective dose [3] [mg/kg]
CO[C@H]1C[C@@]2(C)[C@@H](CC[C@@H]3[C@@H]2CC[C@]2(C)[C@@H](C(=O)Cn4nccn4)CC[C@@H]32)C[C@@H]1O [Compound 2] | 100 to 500 | 100 to 500 | 
C[C@@]1(O)CC[C@@]2(C)[C@H](CC[C@@H]3[C@@H]2CC[C@]2(C)[C@@H](C(=O)Cn4ccc(C(F)(F)F)n4)CC[C@@H]32)C1 [Compound 19] |  |  | ≤ 1
C[C@@]1(O)CC[C@@]2(C)[C@H](CC[C@@H]3[C@@H]2CC[C@]2(C)[C@@H](C(=O)Cn4nc5cc(F)cc(F)c5n4)CC[C@@H]32)C1 [Compound 28] |  |  | ≤ 1
Cc1nnnn1CC(=O)[C@H]1CC[C@H]2[C@@H]3CC[C@@H]4C[C@](C)(O)CC[C@]4(C)[C@H]3CC[C@]12C [Compound 31] |  |  | ≥ 5
Cc1nnn(CC(=O)[C@@H]2CC[C@H]3[C@@H]4CC[C@@H]5C[C@](C)(O)CC[C@]5(C)[C@H]4CC[C@]23C)n1 [Compound 32] |  |  | ≤ 1
C[C@@]1(O)CC[C@@]2(C)[C@H](CC[C@@H]3[C@@H]2CC[C@]2(C)[C@@H](C(=O)Cn4ncnn4)CC[C@@H]32)C1 [Compound 54] |  |  | 1 to 5
C[C@@]1(O)CC[C@@]2(C)[C@@H](CC[C@@H]3[C@@H]2CC[C@]2(C)[C@@H](C(=O)Cn4ncnn4)CC[C@@H]32)C1 [Compound 118] | > 500 | 100 to 500 | 
C[C@@]1(O)CC[C@@]2(C)[C@@H](CC[C@@H]3[C@@H]2CC[C@]2(C)[C@@H](C(=O)Cn4ccc(C#N)n4)CC[C@@H]32)C1 [Compound 121] | > 500 | > 500 | 
C[C@@]1(O)CC[C@@]2(C)[C@@H](CC[C@@H]3[C@@H]2CC[C@]2(C)[C@@H](C(=O)Cn4nnc5cc(F)c(F)cc54)CC[C@@H]32)C1 [Compound 124] | > 500 | 100 to 500 | 
C[C@@]1(O)CC[C@@]2(C)[C@H](CC[C@@H]3[C@@H]2CC[C@]2(C)[C@@H](C(=O)Cn4cc(Cl)cn4)CC[C@@H]32)C1 [Compound 133] | > 500 | 100 to 500 | 
C[C@@]1(O)CC[C@@]2(C)[C@H](CC[C@@H]3[C@@H]2CC[C@]2(C)[C@@H](C(=O)Cn4cc(C(F)(F)F)cn4)CC[C@@H]32)C1 [Compound 134] | > 500 | > 500 | 
COC[C@@]1(O)CC[C@@]2(C)[C@@H](CC[C@@H]3[C@@H]2CC[C@]2(C)[C@@H](C(=O)Cn4cc(C#N)cn4)CC[C@@H]32)C1 [Compound 142] | > 500 | > 500 | 
C[C@@]1(O)CC[C@@]2(C)[C@H](CC[C@@H]3[C@@H]2CC[C@]2(C)[C@@H](C(=O)Cn4ccnc4C#N)CC[C@@H]32)C1 [Compound 143] | > 500 | > 500 | 
COC[C@@]1(O)CC[C@@]2(C)[C@@H](CC[C@@H]3[C@@H]2CC[C@]2(C)[C@@H](C(=O)Cn4nnnc4C)CC[C@@H]32)C1 [Compound 193] | > 500 | > 500 | 1 to 5
COC[C@@]1(O)CC[C@@]2(C)[C@@H](CC[C@@H]3[C@@H]2CC[C@]2(C)[C@@H](C(=O)Cn4nnc(C)n4)CC[C@@H]32)C1 [Compound 194] | > 500 |  | ≤ 1
Cc1nnn(CC(=O)[C@H]2CC[C@H]3[C@@H]4CC[C@H]5C[C@](C)(O)CC[C@]5(C)[C@H]4CC[C@]23C)n1 [Compound 206] | > 500 |  | ≤ 1
C[C@@]1(O)CC[C@@]2(C)[C@H](CC[C@@H]3[C@@H]2CC[C@]2(C)[C@@H](C(=O)Cn4nccn4)CC[C@@H]32)C1 [Compound 207] | > 500 |  | ≥ 5
C[C@@]1(O)CC[C@@]2(C)[C@@H](CC[C@@H]3[C@@H]2CC[C@]2(C)[C@@H](C(=O)Cn4nc5cc(F)cc(F)c5n4)CC[C@@H]32)C1 [Compound 234] | 100 to 500 |  | 
